Data: patent US5585492A, “LTA4 Hydrolase inhibitors” (priority 1994, dated 1996)

Legend:
[1] = target: T1, recombinant human LTA4 hydrolase (Homo sapiens, UniProt P09960); assay: Recombinant Human LTA4 Hydrolase Assay for LTA4 Hydrolase Inhibitor Activity (LTB4 by enzyme-linked immunoassay); assay type: biochemical; settings: for IC50: read-out: Recombinant Human LTA4 Hydrolase Assay IC50 LTA4H
T1 construct: made in house; host or cells: Spodoptera frugiperda Sf-9 cells, baculovirus (AcNPV) expression vector
T1 sequence (P09960 1-611): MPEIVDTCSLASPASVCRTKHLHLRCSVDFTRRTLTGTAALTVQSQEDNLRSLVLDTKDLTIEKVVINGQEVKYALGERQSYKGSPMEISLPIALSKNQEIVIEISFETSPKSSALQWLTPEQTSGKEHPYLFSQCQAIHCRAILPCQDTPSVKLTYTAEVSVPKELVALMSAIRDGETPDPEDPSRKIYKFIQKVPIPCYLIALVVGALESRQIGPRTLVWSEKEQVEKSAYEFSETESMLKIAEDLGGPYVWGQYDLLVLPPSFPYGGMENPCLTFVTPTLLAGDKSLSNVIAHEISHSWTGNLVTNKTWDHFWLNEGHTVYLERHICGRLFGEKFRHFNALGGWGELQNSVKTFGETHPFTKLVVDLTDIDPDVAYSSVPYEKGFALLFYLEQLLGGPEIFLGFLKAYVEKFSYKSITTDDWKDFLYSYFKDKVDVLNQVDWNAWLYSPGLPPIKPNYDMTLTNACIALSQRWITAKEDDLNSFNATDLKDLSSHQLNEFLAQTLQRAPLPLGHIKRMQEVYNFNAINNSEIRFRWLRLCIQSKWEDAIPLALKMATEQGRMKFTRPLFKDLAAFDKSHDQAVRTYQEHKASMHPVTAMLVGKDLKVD
Method: Compounds of the present invention were tested for LTA4 hydrolase inhibitor activity against recombinant human LTA4 hydrolase (rhLTA4 H). […] Briefly, LTA4 hydrolase encoding DNA was amplified by polymerase chain reaction using a pair of oligonucleotide primers based on the nucleotide sequence from the 5'-end, and the complement of the 3'-end, of the coding region of the LTA4 hydrolase gene, the nucleotide sequence of which gene is known. […] A λgtll human placental cDNA library (Clonetech, Palo Alto, Calif.) provided the nucleic acid template.
One or more predetermined amounts of a compound of the invention were incubated in assay buffer (0.1M potassium phosphate, 5 mg/ml fatty acid free BSA, 10% DMSO, pH 7.4) for 10 minutes at room temperature with 250 ng of recombinant hLT4 H to allow binding, if any, between the enzyme and inhibitor. The stock enzyme solution was 1 mg/ml LTA4 hydrolase, 50 mM Tris, pH 8.0, 150 mM NaCl, 2.5 mM beta-mercaptoethanol, 50% glycerol. […] LTA4 (i.e., substrate) was prepared from the methyl ester of LTA4 (Biomol, Inc., Plymouth Meeting, Pa.) by treating the methyl ester with 30 molar equivalents of LiOH at room temperature for 18 hours. The LTA4 substrate in its free acid form was kept frozen at -80° C. until needed. […] Each reaction was carried out at room temperature for 10 minutes. The reaction was stopped by diluting 25 μl of the reaction mixture with 500 μl of the assay buffer without DMSO. LTB4 was quantified in the diluted sample by a commercially available enzyme-linked immunoassay [Caymen Chemical Co., Ann Arbor, Mich.] using the method recommended in the manufacturer's instructions and compared to the amount of LTB4 produced in a negative control (i.e., essentially identical conditions except without addition of an inhibitor compound). The IC50 was routinely calculated from the data produced.

[2] = tested on: LTB4 production in human blood; assay: Inhibition of Calcium Ionophore-Induced LTB4 Production in Human Blood (HWB); assay type: cell-based; settings: Homo sapiens, human whole blood, A23187 20 mcg/ml; read-out: Inhibition of Calcium Ionophore-Induced LTB4 Production in Human Blood IC50 HWB
Method: One or more concentrations of the leukotriene A4 hydrolass inhibitor compounds being tested were prepared (diluted in DMSO) and 2 μl added and gently mixed with the diluted whole blood. After incubating for 15 minutes at 37° C. in a humidified incubator, calcium ionophore A23187 (Sigma Chemical Co., St. Louis, Mo.) was added to a final concentration of 20 mcg/ml and the incubation continued under the same conditions for an additional 10 minutes to allow LTB4 formation. The reaction was terminated by centrifugation (833 g, 10 minutes at 4° C.) and supernatant were analyzed for LTB4 and thromboxane by commercially available enzyme-linked immunoassays (Caymen Chemical Co., Ann Arbor, Mich.) according to the manufacturer's instructions. The IC50 of each test compound was determined from the amount of inhibition of LTB4 production as compared to an essentially identical assay in which no inhibitor compound was present.

SMILES | IC50 [1] | IC50 [2] | also measured
COc1ccc(Cc2ccc(OCCN3CCCC3)cc2)cc1 [Example 128] | 70 nM | 890 nM | 
O=C(O)c1ccc(-c2ccc(OCCN3CCCC3)cc2)cc1 [Example 63] |  |  | inhibition at 25 µM [1]: 40%
c1cc(Cc2ccc(OCCN3CCCC3)cc2)co1 [Example 136] | 77 nM |  | 
CCOC(=O)CCN(C)CCCOc1ccc(Cc2ccccc2)cc1 [Example 412] | 190 nM | 240 nM | 
NC(=O)NC1CCN(CCOc2ccc(Cc3ccccc3)cc2)CC1 [Example 456] | 87 nM | 440 nM | 
c1ccc(Cc2ccc3c(c2)CC(Cn2nc4cccnc4n2)O3)cc1 (centres unmarked) [Example 360B] |  |  | inhibition at 100 µM [1]: 19%
NC(=O)NC1CCN(CCOc2ccc(Cc3ccccc3)cc2)C1 (centres unmarked) [Example 453] | 81 nM | 350 nM | 
Clc1cccc(Cl)c1COc1ccc(OCCN2CCCC2)cc1 [Example 204] |  |  | inhibition at 25 µM [1]: 49%
Fc1ccc(Oc2ccc(OCCn3cnc4cccnc43)cc2)cc1 [Example 354A] |  |  | inhibition at 3 µM [1]: 51%
COC[C@@H]1CCCN1CCOc1ccc(Cc2ccccc2)cc1 [Example 400] | 60 nM | 380 nM | 
COC(=O)C1CCN(CCOc2ccc(Cc3ccccc3)cc2)C1 (centres unmarked) [Example 276] | 4100 nM | 232 nM | 
CCOC(=O)C1CCN(CCOc2ccc(Cc3ccc(F)cc3)cc2)CC1 [Example 312] |  |  | inhibition at 100 µM [1]: 46%
c1cc(Cc2ccc(OCCN3CCCC3)cc2)ccn1 [Example 126] | 630 nM |  | 
c1ccc(Cc2ccc3c(c2)CC(Cn2nnc4cccnc42)O3)cc1 (centres unmarked) [Example 360A] |  |  | inhibition at 100 µM [1]: 36%
CC(C)(C)OC(=O)C1CCCN1CCCOc1ccc(Cc2ccccc2)cc1 (centres unmarked) [Example 260] |  |  | inhibition at 3 µM [1]: 14%
C(=C\c1ccc(OCCN2CCCC2)cc1)/c1ccccc1 [Example 46] | 1350 nM | 1500 nM | 
c1ccc(Oc2ccc(OCCCn3cnc4ccccc43)cc2)cc1 [Example 343] |  |  | inhibition at 3 µM [1]: 40%
Clc1cc(Cc2ccccc2)ccc1OCCN1CCCC1 [Example 113] | 1230 nM | 2010 nM | 
NC(=O)C1CCN(CCCOc2ccc(Cc3ccccc3)cc2)CC1 [Example 226, 1-[3-[4-(phenylmethyl)phenoxy]propyl]-4-piperidinecarboxamide] |  |  | inhibition at 100 µM [1]: 4%
c1ccc(Cc2ccc(SCCN3CCCC3)cc2)cc1 [Example 68] | 480 nM |  | 
Fc1cc(Cc2ccccc2)ccc1OCCN1CCCC1 [Example 115] | 60 nM | 190 nM | 
c1coc(Cc2ccc(OCCN3CCCC3)cc2)c1 [Example 135] | 47 nM |  | 

SMILES | IC50 [1] | IC50 [2] | also measured
COC(=O)CCN(C)CCCOc1ccc(Cc2cccs2)cc1 [Example 331] | 16 nM | 95 nM | 
NC(=O)C1CCCN(CCCOc2ccc(Cc3ccccc3)cc2)C1 (centres unmarked) [Example 244] |  |  | inhibition at 100 µM [1]: 15%
O=C(O)CCNCCCCOc1ccc(Cc2ccccc2)cc1 [Example 433] | 18 nM | 49 nM | 
Cc1nc(COc2ccc(OCCN3CCCC3)cc2)cs1 [Example 202] |  |  | inhibition at 3 µM [1]: 44%
c1ccc(Cc2ccc(OCCn3cnc4cccnc43)cc2)cc1 [Example 338C] |  | 9150 nM | inhibition at 3 µM [1]: 34%
Nc1ccc2ncn(CCOc3ccc(Cc4ccccc4)cc3)c2c1 [Example 362B] | 1320 nM | 4580 nM | 
NC1CCN(CCOc2ccc(Cc3ccccc3)cc2)C1 (centres unmarked) [Example 452] | 20 nM | 290 nM | 
NC(=O)CC1CCN(CCOc2ccc(Cc3ccccc3)cc2)C1 (centres unmarked) [Example 426] | 210 nM | 403 nM | 
c1ccc(COc2ccc(OCCn3cnc4ccccc43)cc2)cc1 [Example 345] |  |  | inhibition at 3 µM [1]: 35%
CC(=O)NC1CCN(CCOc2ccc(Cc3ccccc3)cc2)CC1 [Example 238] | 50 nM | 180 nM | 
NC(=O)C1CCN(CCOc2ccc(Cc3ccccc3)cc2)CC1 [Example 239] | 9000 nM |  | 
C#CC(CC(=O)OCC)NCCOc1ccc(Cc2ccccc2)cc1 (centres unmarked) [Example 408] |  |  | inhibition at 100 µM [1]: 76%
O=C(CNCCOc1ccc(Cc2ccccc2)cc1)OCc1ccccc1 [Example 319] |  |  | inhibition at 100 µM [1]: 47%
c1ccc(Cc2ccc(OCCN3CCCCC3)cc2)cc1 [Example 401] | 55 nM |  | 
N#CC1CCN(CCOc2ccc(Cc3ccccc3)cc2)CC1 [Example 279] | 470 nM |  | 
Cc1ccccc1COc1ccc(OCCN2CCCC2)cc1 [Example 210] |  |  | inhibition at 25 µM [1]: 4%
c1ccc(Cc2ccc3c(c2)CC(Cn2nc4ccncc4n2)O3)cc1 (centres unmarked) [Example 361A] |  |  | inhibition at 100 µM [1]: 24%
CCOC(=O)C1CCN(CCOc2ccc(Cc3cccnc3)cc2)CC1 [Example 311] |  |  | inhibition at 100 µM [1]: 44%
O=c1[nH]c(C2CCN(CCOc3ccc(Cc4ccccc4)cc3)CC2)no1 [Example 448] |  | 825 nM | 
O=C(O)c1ccc(Oc2ccc(OCCN3CCCC3)cc2)cc1 [Example 64] |  |  | inhibition at 25 µM [1]: 52%
NC(=O)C1CCN(CC2Cc3cc(Oc4ccccc4)ccc3O2)CC1 (centres unmarked) [Example 290] |  | 528 nM | 
COc1ccc(Cc2ccc(OCCN3CCC(C(N)=O)CC3)cc2)cc1 [Example 232] |  | 10000 nM | 

SMILES | IC50 [1] | IC50 [2] | also measured
O=C(OCc1ccccc1)[C@@H]1CCCN1CCCOc1ccc(Cc2ccccc2)cc1 [Example 228, Phenylmethyl 1-[3-[4-(phenylmethyl)phenoxy]propyl]-L-prolinate] |  |  | inhibition at 3 µM [1]: 28%
Fc1cccc(Cc2ccc(OCCN3CCCC3)cc2)c1 [Example 142] |  | 100 nM | 
c1ccc(COc2ccc(OCCn3cnc4cccnc43)cc2)cc1 [Example 346A] |  |  | inhibition at 3 µM [1]: 31%
Fc1ccc(Oc2ccc(OCCn3cnc4ncccc43)cc2)cc1 [Example 354B] |  | 600 nM | 
NC(=O)C1CCN(CC2Cc3cc(Cc4ccccc4)ccc3O2)CC1 (centres unmarked) [Example 281] |  | 167 nM | 
CC1(CN2CCC(C(N)=O)CC2)Cc2cc(Cc3ccccc3)ccc2O1 (centres unmarked) [Example 286] |  |  | inhibition at 100 µM [1]: 41%
NC(=O)CCNC(=O)C1CCN(CCOc2ccc(Cc3ccccc3)cc2)CC1 [Example 421] |  | 800 nM | 
O=C(O)[C@@H]1CCCN1CCCOc1ccc(Cc2ccccc2)cc1 [Example 430] |  | 290 nM | 
CCOC(=O)CC1CCN(CCCOc2ccc(Cc3ccccc3)cc2)CC1 [Example 302] |  | 2400 nM | 
c1ccc(Oc2ccc(OCCn3cnc4ccccc43)cc2)cc1 [Example 344] |  | 13500 nM | 
NC1CCN(CCOc2ccc(Cc3ccccc3)cc2)CC1 [Example 455] |  | 180 nM | 
CNC(=O)C1CCN(CC2Cc3cc(Oc4ccccc4)ccc3O2)CC1 (centres unmarked) [Example 296] |  | 512 nM | 
COC(=O)CCN(C)CCCOc1ccc(Cc2ccccc2)cc1 [Example 413] |  | 42 nM | 
Fc1ccc(Oc2ccc(OCCn3cccc4ncnc3-4)cc2)cc1 [Example 354C] |  | 1180 nM | 
c1ccc(Oc2ccc(OCCn3cccc4ncnc3-4)cc2)cc1 [Example 348C] |  | 540 nM | 
CNC(=O)C1CCN(CCOc2ccc(Oc3ccccc3)cc2)CC1 [Example 255] |  | 608 nM | 
c1ccc(Oc2ccc(OCCn3ccc4ncnc-4c3)cc2)cc1 [Example 349C] |  | 200 nM | 
CCOC(=O)C1CCN(CCOc2ccc(Cc3cccc(F)c3)cc2)CC1 [Example 309] |  | 1770 nM | 
CCOC(=O)C1CCN(CC2Cc3cc(Oc4ccccc4)ccc3O2)CC1 (centres unmarked) [Example 291] |  | 1850 nM | 
NC(=O)C1(O)CCN(CCOc2ccc(Cc3ccccc3)cc2)CC1 [Example 427] |  | 532 nM | 
